Active and inactive are the calls of the source. The calls are words filed in the database; no cut-off is given here.
Assays:
Cytochrome P450 3A4 = Cytochrome P450 3A4 (Homo sapiens, UniProt P08684); test: Inhibition of CYP3A4 (unknown origin) using Vivid BOMR as substrate; type: ADME
PC-12 [1] = test: Induction iof GAP-43 protein expression in rat PC12 cells at 0.1 uM after 48 hrs by Western blotting analysis; type: functional, cell-based
[2] = target: Amyloid-beta precursor protein (Homo sapiens, UniProt P05067); test: Inhibition of amyloid beta aggregation (unknown origin) after 4 hrs by thioflavin S assay in absence of Zn2+
Histone deacetylase 1 [3] = target: T1, Histone deacetylase 1 (Homo sapiens, UniProt Q13547); test: Inhibition of human recombinant HDAC1 expressed in baculovirus/sf9 cells using RHKKAc as substrate
T1 sequence (Q13547 whole entry): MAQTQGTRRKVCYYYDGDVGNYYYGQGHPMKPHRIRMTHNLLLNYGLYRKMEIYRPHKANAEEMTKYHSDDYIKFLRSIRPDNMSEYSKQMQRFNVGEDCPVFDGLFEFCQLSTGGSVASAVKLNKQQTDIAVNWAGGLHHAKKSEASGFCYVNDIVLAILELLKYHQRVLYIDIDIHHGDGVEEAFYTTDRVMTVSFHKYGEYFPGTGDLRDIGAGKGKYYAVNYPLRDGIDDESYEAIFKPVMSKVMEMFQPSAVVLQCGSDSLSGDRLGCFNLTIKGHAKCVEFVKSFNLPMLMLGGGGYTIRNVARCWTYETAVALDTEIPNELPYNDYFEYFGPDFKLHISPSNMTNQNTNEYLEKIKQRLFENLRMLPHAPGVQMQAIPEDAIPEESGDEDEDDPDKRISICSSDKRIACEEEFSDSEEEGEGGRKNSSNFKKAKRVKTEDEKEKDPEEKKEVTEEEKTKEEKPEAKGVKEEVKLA

Cytochrome P450 1A2 = Cytochrome P450 1A2 (Homo sapiens, UniProt P05177); test: Inhibition of CYP1A2 (unknown origin) using 3-cyano-7-ethoxycoumarin as substrate; type: ADME
Cytochrome P450 1A2, sequence (P05177 whole entry): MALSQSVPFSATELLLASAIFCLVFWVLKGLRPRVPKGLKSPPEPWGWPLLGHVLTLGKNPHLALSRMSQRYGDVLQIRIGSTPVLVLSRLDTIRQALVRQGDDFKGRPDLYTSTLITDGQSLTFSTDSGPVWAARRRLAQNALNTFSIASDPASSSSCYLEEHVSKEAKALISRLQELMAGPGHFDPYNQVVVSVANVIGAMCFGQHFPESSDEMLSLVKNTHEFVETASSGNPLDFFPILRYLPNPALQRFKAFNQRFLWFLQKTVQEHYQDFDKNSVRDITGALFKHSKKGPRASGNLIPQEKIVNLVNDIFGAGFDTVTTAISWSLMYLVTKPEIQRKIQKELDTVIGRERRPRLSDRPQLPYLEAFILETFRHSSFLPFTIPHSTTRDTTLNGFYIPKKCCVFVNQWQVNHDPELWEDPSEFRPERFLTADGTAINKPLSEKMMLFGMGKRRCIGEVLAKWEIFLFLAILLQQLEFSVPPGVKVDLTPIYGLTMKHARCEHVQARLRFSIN

PC-12 [4] = test: Inhibition of HDAC6 in rat PC12 cells assessed as induction of alpha-tubulin acetylation at 10 uM after 48 hrs by Western blotting analysis; type: cell-based
Mus musculus [5] = test: Antialzheimer activity in wild type learning-impaired Balb/c mouse model with hippocampal lesions at 10 mg/kg, ip administered for 30 days by rotarod test relative to vehicle-treated control; conditions: Hippocampus, TDE = time-dependent effect
[6] = Cytotoxicity against human SH-SY5Y cells at 25 uM; type: cell-based
Histone deacetylase 8 = target: T2, Histone deacetylase 8 (Homo sapiens, UniProt Q9BY41); test: Inhibition of human recombinant HDAC8 expressed in baculovirus/sf9 cells using RHKAcKAc as substrate
T2 sequence (Q9BY41 whole entry): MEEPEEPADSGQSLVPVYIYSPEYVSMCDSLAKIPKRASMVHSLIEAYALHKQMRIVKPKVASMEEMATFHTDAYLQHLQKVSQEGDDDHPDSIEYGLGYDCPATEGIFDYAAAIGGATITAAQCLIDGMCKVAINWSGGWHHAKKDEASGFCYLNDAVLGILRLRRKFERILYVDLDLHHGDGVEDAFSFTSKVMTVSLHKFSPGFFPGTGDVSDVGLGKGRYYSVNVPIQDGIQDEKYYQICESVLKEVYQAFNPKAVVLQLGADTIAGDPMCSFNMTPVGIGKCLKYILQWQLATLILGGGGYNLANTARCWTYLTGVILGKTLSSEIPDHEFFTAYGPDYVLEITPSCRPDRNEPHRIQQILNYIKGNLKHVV

PC-12 [7] = test: Inhibition of HDAC6 in rat PC12 cells assessed as acetylation of histone H3 at 10 uM after 48 hrs by Western blotting analysis; type: cell-based
[8] = target: T3, Protein deacetylase HDAC6 (Homo sapiens, UniProt Q9UBN7); test: Inhibition of human recombinant HDAC6 expressed in baculovirus/sf9 cells using RHKKAc as substrate
T3 sequence (Q9UBN7 whole entry): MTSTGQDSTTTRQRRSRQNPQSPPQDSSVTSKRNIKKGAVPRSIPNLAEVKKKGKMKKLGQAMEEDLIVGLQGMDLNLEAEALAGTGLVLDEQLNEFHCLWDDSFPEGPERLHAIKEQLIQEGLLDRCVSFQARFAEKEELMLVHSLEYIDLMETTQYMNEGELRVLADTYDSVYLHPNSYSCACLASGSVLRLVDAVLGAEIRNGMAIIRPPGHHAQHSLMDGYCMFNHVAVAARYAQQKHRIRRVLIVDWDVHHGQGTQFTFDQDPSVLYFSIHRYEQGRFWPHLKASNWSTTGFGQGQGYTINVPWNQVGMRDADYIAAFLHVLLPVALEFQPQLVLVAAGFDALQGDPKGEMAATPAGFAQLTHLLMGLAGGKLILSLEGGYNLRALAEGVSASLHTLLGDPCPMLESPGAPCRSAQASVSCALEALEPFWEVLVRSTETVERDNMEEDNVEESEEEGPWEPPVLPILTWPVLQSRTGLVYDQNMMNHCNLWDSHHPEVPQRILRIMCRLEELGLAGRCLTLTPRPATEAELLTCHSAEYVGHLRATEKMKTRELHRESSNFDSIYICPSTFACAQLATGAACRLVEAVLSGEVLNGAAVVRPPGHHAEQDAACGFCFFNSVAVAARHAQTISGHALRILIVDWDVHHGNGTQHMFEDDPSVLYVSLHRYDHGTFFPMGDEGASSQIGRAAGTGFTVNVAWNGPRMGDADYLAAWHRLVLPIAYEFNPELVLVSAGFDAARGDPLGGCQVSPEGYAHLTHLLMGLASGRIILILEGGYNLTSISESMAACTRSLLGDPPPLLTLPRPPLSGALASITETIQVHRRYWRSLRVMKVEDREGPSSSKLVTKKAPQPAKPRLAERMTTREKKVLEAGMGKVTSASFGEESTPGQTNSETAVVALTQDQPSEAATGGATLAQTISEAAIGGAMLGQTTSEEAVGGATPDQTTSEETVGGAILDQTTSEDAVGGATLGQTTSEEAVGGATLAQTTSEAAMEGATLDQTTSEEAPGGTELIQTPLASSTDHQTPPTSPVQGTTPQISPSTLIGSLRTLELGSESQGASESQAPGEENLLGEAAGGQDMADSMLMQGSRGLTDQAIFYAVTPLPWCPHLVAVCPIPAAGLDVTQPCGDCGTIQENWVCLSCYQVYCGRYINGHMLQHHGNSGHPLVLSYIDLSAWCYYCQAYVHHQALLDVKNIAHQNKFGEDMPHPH

Cytochrome P450 2D6 = Cytochrome P450 2D6 (Homo sapiens, UniProt P10635); test: Inhibition of CYP2D6 (unknown origin) using 3-cyano-7-ethoxycoumarin as substrate; type: ADME
Cytochrome P450 2D6, sequence (P10635 whole entry): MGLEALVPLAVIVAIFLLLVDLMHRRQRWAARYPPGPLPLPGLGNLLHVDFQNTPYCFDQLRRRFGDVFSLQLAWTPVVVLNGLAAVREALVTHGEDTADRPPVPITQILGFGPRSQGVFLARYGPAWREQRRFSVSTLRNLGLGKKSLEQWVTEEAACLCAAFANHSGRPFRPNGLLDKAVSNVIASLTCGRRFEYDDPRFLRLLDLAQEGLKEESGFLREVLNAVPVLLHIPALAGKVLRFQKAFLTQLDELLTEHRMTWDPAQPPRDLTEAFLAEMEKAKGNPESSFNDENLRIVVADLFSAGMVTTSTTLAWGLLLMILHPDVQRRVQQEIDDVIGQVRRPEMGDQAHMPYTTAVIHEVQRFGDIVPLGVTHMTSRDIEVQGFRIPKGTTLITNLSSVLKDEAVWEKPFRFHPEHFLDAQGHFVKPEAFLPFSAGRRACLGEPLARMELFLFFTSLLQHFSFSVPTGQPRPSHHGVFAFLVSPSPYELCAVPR

PC-12 [9] = test: Induction iof GAP-43 protein expression in rat PC12 cells after 48 hrs by Western blotting analysis; type: functional, cell-based
Histone deacetylase 2 [10] = target: T4, Histone deacetylase 2 (Homo sapiens, UniProt Q92769); test: Inhibition of human recombinant HDAC2 expressed in baculovirus/sf9 cells using RHKKAc as substrate
T4 sequence (Q92769 whole entry): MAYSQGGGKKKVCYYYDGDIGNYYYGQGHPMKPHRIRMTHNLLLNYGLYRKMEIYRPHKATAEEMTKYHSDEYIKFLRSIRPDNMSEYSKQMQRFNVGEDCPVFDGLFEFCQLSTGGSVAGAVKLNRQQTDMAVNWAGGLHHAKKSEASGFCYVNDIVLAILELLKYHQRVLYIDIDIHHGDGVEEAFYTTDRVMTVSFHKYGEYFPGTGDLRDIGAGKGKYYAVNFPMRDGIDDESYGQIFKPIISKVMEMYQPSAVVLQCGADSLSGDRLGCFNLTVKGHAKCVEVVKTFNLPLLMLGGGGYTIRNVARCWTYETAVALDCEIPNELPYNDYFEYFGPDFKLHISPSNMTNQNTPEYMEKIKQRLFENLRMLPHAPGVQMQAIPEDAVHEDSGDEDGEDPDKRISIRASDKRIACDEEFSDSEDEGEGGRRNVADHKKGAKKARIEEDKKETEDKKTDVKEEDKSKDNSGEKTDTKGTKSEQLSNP

PC-12 [11] = test: Increase of synaptic activity in rat PC12 cells after 5 days by fluorescence assay; type: functional, cell-based; conditions: PC-12, 120 h
SH-SY5Y [12] = test: Induction of neurite outgrowth in human SH-SY5Y cells at 10 uM after 5 days; type: functional, cell-based
Mus musculus [13] = test: Antialzheimer activity in wild type learning-impaired Balb/c mouse model with hippocampal lesions assessed as increase in acetylated alpha-tubulin level in hippocampus region at 10 mg/kg, ip administered for 30 days by rotarod test
Vero = test: Cytotoxicity against african green monkey Vero cells at 25 uM; type: cell-based; conditions: chlorocebus sabaeus
PC-12 [14] = test: Induction of neurite outgrowth in rat PC12 cells at 10 uM after 5 days; type: functional, cell-based
Histone deacetylase 11 = target: T5, Histone deacetylase 11 (Homo sapiens, UniProt Q96DB2); test: Inhibition of human recombinant HDAC11 expressed in baculovirus/sf9 cells using RHKKAc as substrate
T5 sequence (Q96DB2 whole entry): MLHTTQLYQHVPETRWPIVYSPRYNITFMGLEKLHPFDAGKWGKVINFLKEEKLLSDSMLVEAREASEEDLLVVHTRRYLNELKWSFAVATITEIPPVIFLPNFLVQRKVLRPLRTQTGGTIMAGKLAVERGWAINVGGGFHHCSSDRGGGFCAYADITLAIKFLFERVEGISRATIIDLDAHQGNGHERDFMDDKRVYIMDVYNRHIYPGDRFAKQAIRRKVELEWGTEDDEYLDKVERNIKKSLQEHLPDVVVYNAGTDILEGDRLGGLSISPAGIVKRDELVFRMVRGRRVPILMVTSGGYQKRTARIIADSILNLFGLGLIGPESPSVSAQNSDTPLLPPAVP

Cytochrome P450 2C9 = Cytochrome P450 2C9 (Homo sapiens, UniProt P11712); test: Inhibition of CYP2C9 (unknown origin) using Vivid OOMR as substrate; type: ADME
Cytochrome P450 2C9, sequence (P11712 whole entry): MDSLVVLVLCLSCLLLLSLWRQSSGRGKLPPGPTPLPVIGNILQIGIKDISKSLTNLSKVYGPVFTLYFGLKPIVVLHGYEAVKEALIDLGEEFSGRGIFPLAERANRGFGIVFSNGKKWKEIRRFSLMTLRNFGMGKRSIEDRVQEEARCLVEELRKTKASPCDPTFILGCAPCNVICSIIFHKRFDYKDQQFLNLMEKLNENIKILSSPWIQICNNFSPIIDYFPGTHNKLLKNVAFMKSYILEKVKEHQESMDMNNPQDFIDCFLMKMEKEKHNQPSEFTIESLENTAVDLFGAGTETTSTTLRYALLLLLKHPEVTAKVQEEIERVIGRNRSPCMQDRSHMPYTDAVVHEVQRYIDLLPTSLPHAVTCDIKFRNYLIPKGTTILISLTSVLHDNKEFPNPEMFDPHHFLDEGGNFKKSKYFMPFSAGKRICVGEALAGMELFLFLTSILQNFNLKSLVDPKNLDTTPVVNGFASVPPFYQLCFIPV

SH-SY5Y [15] = test: Induction of neurite outgrowth in human SH-SY5Y cells after 5 days; type: functional, cell-based; conditions: 120 h
PC-12 [16] = test: Induction of neurite outgrowth in rat PC12 cells after 5 days; type: functional, cell-based; conditions: PC-12, 120 h
PC-12 [17] = test: Cytotoxicity against rat PC12 cells at 25 uM; type: cell-based; conditions: pc-12, 25 µM
Cytochrome P450 2C19 = Cytochrome P450 2C19 (Homo sapiens, UniProt P33261); test: Inhibition of CYP2C19 (unknown origin) using 3-cyano-7-ethoxycoumarin as substrate; type: ADME
Cytochrome P450 2C19, sequence (P33261 whole entry): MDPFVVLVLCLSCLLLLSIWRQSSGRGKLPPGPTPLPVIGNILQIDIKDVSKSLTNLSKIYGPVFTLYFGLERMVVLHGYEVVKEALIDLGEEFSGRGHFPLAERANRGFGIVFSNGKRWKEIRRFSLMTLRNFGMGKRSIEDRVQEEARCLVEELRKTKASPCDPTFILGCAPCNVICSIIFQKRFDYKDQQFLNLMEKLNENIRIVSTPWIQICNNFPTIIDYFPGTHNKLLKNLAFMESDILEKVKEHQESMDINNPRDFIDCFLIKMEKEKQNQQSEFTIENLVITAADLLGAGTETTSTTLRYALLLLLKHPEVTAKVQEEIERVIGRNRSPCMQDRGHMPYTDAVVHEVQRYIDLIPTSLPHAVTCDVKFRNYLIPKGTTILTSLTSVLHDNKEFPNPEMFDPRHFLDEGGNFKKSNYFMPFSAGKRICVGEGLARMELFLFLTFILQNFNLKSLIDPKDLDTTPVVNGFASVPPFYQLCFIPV

SH-SY5Y [18] = test: Increase of synaptic activity in human SH-SY5Y cells after 5 days by fluorescence assay; type: functional, cell-based; conditions: 120 h
[19] = target: Poly [ADP-ribose] polymerase 1 (Homo sapiens) (UniProt P09874); test: Inhibition of PARP1 (unknown origin) up to 25 uM
Poly [ADP-ribose] polymerase 1 (Homo sapiens), sequence (P09874 whole entry): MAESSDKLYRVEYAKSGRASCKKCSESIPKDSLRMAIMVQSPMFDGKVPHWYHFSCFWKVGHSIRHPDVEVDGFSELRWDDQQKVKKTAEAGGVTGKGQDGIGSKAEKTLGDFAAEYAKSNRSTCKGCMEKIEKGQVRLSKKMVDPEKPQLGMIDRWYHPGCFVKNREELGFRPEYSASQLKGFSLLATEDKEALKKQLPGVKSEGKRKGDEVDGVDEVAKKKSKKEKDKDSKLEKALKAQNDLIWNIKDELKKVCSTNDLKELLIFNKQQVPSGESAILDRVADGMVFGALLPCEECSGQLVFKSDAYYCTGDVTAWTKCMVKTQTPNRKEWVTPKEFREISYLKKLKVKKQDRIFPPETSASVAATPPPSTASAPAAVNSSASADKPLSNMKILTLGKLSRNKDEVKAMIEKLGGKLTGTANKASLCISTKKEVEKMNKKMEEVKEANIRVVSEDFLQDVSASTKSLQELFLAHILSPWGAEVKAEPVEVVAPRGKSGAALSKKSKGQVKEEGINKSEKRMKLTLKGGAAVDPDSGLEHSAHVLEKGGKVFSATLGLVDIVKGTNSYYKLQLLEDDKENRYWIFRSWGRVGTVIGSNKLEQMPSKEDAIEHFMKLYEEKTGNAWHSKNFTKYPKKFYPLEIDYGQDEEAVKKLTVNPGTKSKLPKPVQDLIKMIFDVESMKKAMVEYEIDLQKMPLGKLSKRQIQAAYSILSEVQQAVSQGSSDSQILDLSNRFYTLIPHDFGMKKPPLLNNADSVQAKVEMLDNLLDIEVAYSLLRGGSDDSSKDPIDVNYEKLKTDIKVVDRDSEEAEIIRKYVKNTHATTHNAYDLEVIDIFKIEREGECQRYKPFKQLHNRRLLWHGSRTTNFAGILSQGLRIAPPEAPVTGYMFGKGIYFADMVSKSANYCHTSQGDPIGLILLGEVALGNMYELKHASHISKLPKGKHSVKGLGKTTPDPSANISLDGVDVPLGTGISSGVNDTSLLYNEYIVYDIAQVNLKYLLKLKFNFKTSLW

PC-12 [20] = test: Inhibition of HDAC6 in rat PC12 cells assessed as induction of alpha-tubulin acetylation after 48 hrs by Western blotting analysis; type: cell-based
Histone deacetylase 2 [21] = target: T4, Histone deacetylase 2; test: Inhibition of human recombinant HDAC2 expressed in baculovirus/sf9 cells using RHKKAc as substrate at 1 uM
[22] = target: Protein deacetylase HDAC6 (Homo sapiens) (UniProt Q9UBN7); test: Inhibition of human recombinant HDAC6 expressed in baculovirus/sf9 cells using RHKKAc as substrate at 1 uM
[23] = target: Histone deacetylase 11 (Homo sapiens) (UniProt Q96DB2); test: Inhibition of human recombinant HDAC11 expressed in baculovirus/sf9 cells using RHKKAc as substrate at 1 uM
[24] = target: Histone deacetylase 8 (Homo sapiens) (UniProt Q9BY41); test: Inhibition of human recombinant HDAC8 expressed in baculovirus/sf9 cells using RHKAcKAc as substrate at 1 uM
[25] = target: Polyamine deacetylase HDAC10 (Homo sapiens) (UniProt Q969S8); test: Inhibition of human recombinant HDAC10 expressed in baculovirus/sf9 cells using RHKKAc as substrate at 1 uM
Histone deacetylase 1 [26] = target: T1, Histone deacetylase 1; test: Inhibition of human recombinant HDAC1 expressed in baculovirus/sf9 cells using RHKKAc as substrate at 1 uM

Cytochrome P450 3A4, sequence (P08684 whole entry): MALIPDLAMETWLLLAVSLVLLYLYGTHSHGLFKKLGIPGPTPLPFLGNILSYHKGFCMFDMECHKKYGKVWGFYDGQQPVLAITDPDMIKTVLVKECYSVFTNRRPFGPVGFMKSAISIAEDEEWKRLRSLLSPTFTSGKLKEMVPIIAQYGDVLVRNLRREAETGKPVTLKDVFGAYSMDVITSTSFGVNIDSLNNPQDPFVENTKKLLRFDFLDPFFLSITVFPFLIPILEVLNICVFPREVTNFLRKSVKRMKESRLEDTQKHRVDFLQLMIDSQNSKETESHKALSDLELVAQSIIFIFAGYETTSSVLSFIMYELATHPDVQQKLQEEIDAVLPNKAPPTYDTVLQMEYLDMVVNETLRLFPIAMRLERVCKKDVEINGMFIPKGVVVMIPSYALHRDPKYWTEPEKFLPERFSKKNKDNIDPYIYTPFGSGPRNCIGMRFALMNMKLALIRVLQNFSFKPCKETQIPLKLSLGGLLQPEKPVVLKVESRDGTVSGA

Row | Structure (SMILES) | IC50 (Cytochrome P450 3A4) [µM] | IC50 (Cytochrome P450 1A2) [µM] | Activity [6] | IC50 (Histone deacetylase 8) [µM] | IC50 [8] [µM] | IC50 (Cytochrome P450 2D6) [µM] | Activity (PC-12 [9]) | IC50 (Histone deacetylase 2 [10]) [µM] | EC50 (PC-12 [11]) [µM] | Activity (SH-SY5Y [12]) | Activity (Vero) | Activity (PC-12 [14]) | IC50 (Histone deacetylase 11) [µM] | IC50 (Cytochrome P450 2C9) [µM] | EC50 (SH-SY5Y [15]) [µM] | EC50 (PC-12 [16]) [µM] | Activity (PC-12 [17]) | IC50 (Cytochrome P450 2C19) [µM] | EC50 (SH-SY5Y [18]) [µM] | inhibition [19] | also measured
1 | Cc1nc2cc(/C=C/C(=O)NO)ccc2c(=O)n1CCc1ccccc1 | 6.5 | > 10 | Non-toxic | 1.75 | 0.029 | > 10 | Dose-dependent effect | 6.45 | 6.5 | Active | Non-toxic | Active | 4.08 | 9.1 | 9.2 | 7.3 | Non-toxic | > 10 | 6.8 | inactive | Activity (PC-12 [1]): Active; IC50 [2]: > 50 µM; IC50 (Histone deacetylase 1 [3]): 1.88 µM; inhibition (PC-12 [4]): Active; Activity (Mus musculus [5]): tde; inhibition (PC-12 [7]): Active; Activity (Mus musculus [13]): Active
2 | CCc1nc2c(Cc3ccc(C(=O)NO)cc3)cccc2c(=O)n1CCc1ccccc1 | 0.1 | > 10 | Non-toxic | 0.282 | 0.079 | > 10 | Dose-dependent effect | > 10 | 6.7 | Active | Non-toxic | Active | 37.1 | 2.1 | 8.1 | 6.2 | Non-toxic | 3.3 | 8.3 | inactive | inhibition (PC-12 [20]): Dose-dependent effect
3 | CCc1nc2c(-c3ccc(C(=O)NO)cc3)cccc2c(=O)n1CCc1ccccc1 |  |  |  |  |  |  |  |  |  |  |  |  |  |  |  |  |  |  |  |  | inhibition (Histone deacetylase 2 [21]): inactive; inhibition [22]: 50%; inhibition [23]: inactive; inhibition [24]: 50%; inhibition [25]: inactive; inhibition (Histone deacetylase 1 [26]): inactive
